Results published in ChEMBL document CHEMBL1201862, “PubChem BioAssay data set” (2004).
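A five-concentration, 48-hour dose response in 96-well plates underlies each endpoint, interpolated linearly between surrounding concentrations. The concentration for 50% growth inhibition is given as GI50.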 Calls of active or inactive are those of the source. Rule as the data show it: active = GI50 up to about 1.1 µM and inactive = higher.

What was measured:
Test in all cases: growth of human tumour cells (NCI), 48 h
[1] = test system: 786-0
[2] = test system: ACHN
[3] = test system: HCC 2998
[4] = test system: HCT-116
[5] = test system: HT-29
[6] = test system: KM12
[7] = test system: LOX IMVI
[8] = test system: M14
[9] = test system: MCF7
[10] = test system: Malme-3M
[11] = test system: NCI/ADR-RES
[12] = test system: OVCAR-4
[13] = test system: OVCAR-5
[14] = test system: PC-3
[15] = test system: RXF 393
[16] = test system: SN12C
[17] = test system: SNB-19
[18] = test system: SNB-75
[19] = test system: U-251
[20] = test system: UACC-62

SMILES	GI50 [1]	GI50 [2]	GI50 [3]	GI50 [4]	GI50 [5]	GI50 [6]	GI50 [7]	GI50 [8]	GI50 [9]	GI50 [10]	GI50 [11]	GI50 [12]	GI50 [13]	GI50 [14]	GI50 [15]	GI50 [16]	GI50 [17]	GI50 [18]	GI50 [19]	GI50 [20]
COC1=CC(=O)c2c(c(COP(=O)(N(C)CCBr)N(C)CCBr)cn2C)C1=O	< 0.0103 µM (active)	< 0.01 µM (active)	0.0373 µM (active)	< 0.01 µM (active)	< 0.0219 µM (active)	0.219 µM (active)	0.194 µM (active)	< 0.0178 µM (active)	< 0.01 µM (active)	0.0811 µM (active)	0.134 µM (active)	1.33 µM (inactive)	0.148 µM (active)	0.643 µM (active)	0.0574 µM (active)	< 0.01 µM (active)	0.141 µM (active)	0.0826 µM (active)	< 0.0225 µM (active)	< 0.0333 µM (active)
Oc1ccc(Cl)cc1Cc1cc(Cl)cc(Cc2cc(Cl)ccc2O)c1O	2.81 µM (inactive)	2.29 µM (inactive)	0.836 µM (active)	2.28 µM (inactive)	3 µM (inactive)	2.64 µM (inactive)	2.9 µM (inactive)	2.39 µM (inactive)	2.21 µM (inactive)	1.95 µM (inactive)	2.04 µM (inactive)	2.83 µM (inactive)	3.17 µM (inactive)	2.45 µM (inactive)	1.84 µM (inactive)	2.4 µM (inactive)	2.56 µM (inactive)	1.93 µM (inactive)	2.7 µM (inactive)	2.15 µM (inactive)
NC(=O)ON=C1CCN(Cc2ccccc2)CC1	> 100 µM (inactive)	> 100 µM (inactive)	> 100 µM (inactive)	> 100 µM (inactive)	> 100 µM (inactive)	> 100 µM (inactive)	> 100 µM (inactive)	> 100 µM (inactive)	> 100 µM (inactive)	> 100 µM (inactive)	> 100 µM (inactive)	> 100 µM (inactive)	> 100 µM (inactive)	> 100 µM (inactive)	> 100 µM (inactive)	> 100 µM (inactive)	> 100 µM (inactive)	74.8 µM (inactive)	> 100 µM (inactive)	> 100 µM (inactive)
COc1ccc(OC)c(NC2=NCCO2)c1	> 100 µM (inactive)	> 100 µM (inactive)	> 100 µM (inactive)	> 100 µM (inactive)	62.2 µM (inactive)	> 100 µM (inactive)	> 100 µM (inactive)	> 100 µM (inactive)	> 100 µM (inactive)	> 100 µM (inactive)	> 100 µM (inactive)	> 100 µM (inactive)	> 100 µM (inactive)	> 100 µM (inactive)	> 100 µM (inactive)	> 100 µM (inactive)	10.6 µM (inactive)	> 100 µM (inactive)	> 100 µM (inactive)	> 100 µM (inactive)
O=C(N/N=C\c1ccccc1)Nc1cccc2ccccc12	16.4 µM (inactive)	18.1 µM (inactive)	80.2 µM (inactive)	35.9 µM (inactive)	24.3 µM (inactive)	33.4 µM (inactive)	44.2 µM (inactive)	21.8 µM (inactive)	> 10 µM (inactive)	28.5 µM (inactive)	87.7 µM (inactive)	33.5 µM (inactive)	60.4 µM (inactive)	24.4 µM (inactive)	28.1 µM (inactive)	20.3 µM (inactive)	60.7 µM (inactive)	18.7 µM (inactive)	30.3 µM (inactive)	29.2 µM (inactive)
CNC1=C(C)C(=O)C(O)=C([C@H](C)CCC=C(C)C)C1=O	24.9 µM (inactive)	11.2 µM (inactive)	31.8 µM (inactive)	33.9 µM (inactive)	36.6 µM (inactive)	17 µM (inactive)	14.7 µM (inactive)	22.2 µM (inactive)	37.2 µM (inactive)	16 µM (inactive)	5.21 µM (inactive)	11.7 µM (inactive)	77.8 µM (inactive)	22.6 µM (inactive)	30.7 µM (inactive)	22.8 µM (inactive)	31.8 µM (inactive)	18 µM (inactive)	27.7 µM (inactive)	13 µM (inactive)
O=C(CCO)OCCCCCC/C=C\CCCCCC/C=C\CCCCCCCCOC(=O)CCO	18.5 µM (inactive)	23.9 µM (inactive)	16.5 µM (inactive)	16.3 µM (inactive)	17.7 µM (inactive)	19.1 µM (inactive)	18.4 µM (inactive)	17.1 µM (inactive)	15.7 µM (inactive)	20.5 µM (inactive)	17.9 µM (inactive)	25.3 µM (inactive)	18.3 µM (inactive)	17.1 µM (inactive)	18.9 µM (inactive)	17.2 µM (inactive)	18.9 µM (inactive)	19.8 µM (inactive)	16.7 µM (inactive)	16.3 µM (inactive)
CC(C)OP(=O)(OC(C)C)/C(C#N)=C/c1c[nH]c2ccccc12	> 100 µM (inactive)	86.3 µM (inactive)	> 100 µM (inactive)	> 100 µM (inactive)	> 100 µM (inactive)	> 100 µM (inactive)	> 100 µM (inactive)	60.7 µM (inactive)	28.7 µM (inactive)	86.3 µM (inactive)	21.7 µM (inactive)	86.5 µM (inactive)	> 100 µM (inactive)	67.6 µM (inactive)	> 100 µM (inactive)	> 100 µM (inactive)	> 100 µM (inactive)	72.6 µM (inactive)	> 100 µM (inactive)	76.6 µM (inactive)
O=C(c1ccco1)N(Cc1cccnc1)C(=S)N(Cc1cccnc1)C(=O)c1ccco1	3.06 µM (inactive)	17 µM (inactive)	17.5 µM (inactive)	7.67 µM (inactive)	17.6 µM (inactive)	3.9 µM (inactive)	5.05 µM (inactive)	12.9 µM (inactive)	3.86 µM (inactive)	16.7 µM (inactive)	34.2 µM (inactive)	20.4 µM (inactive)	23.7 µM (inactive)	6.19 µM (inactive)	28.7 µM (inactive)	10.6 µM (inactive)	30.8 µM (inactive)	38.8 µM (inactive)	16.3 µM (inactive)	15.2 µM (inactive)
C=C(Cl)c1c(OC)cccc1OCc1ccccc1	> 100 µM (inactive)	90.8 µM (inactive)	37.4 µM (inactive)	56.8 µM (inactive)	34.5 µM (inactive)	54.2 µM (inactive)	69.7 µM (inactive)	> 100 µM (inactive)	58.5 µM (inactive)	> 100 µM (inactive)	> 100 µM (inactive)	98.9 µM (inactive)	> 100 µM (inactive)	> 100 µM (inactive)	16.7 µM (inactive)	> 100 µM (inactive)	> 100 µM (inactive)	23.5 µM (inactive)	> 100 µM (inactive)	30.4 µM (inactive)
O=C1C=C(NCCc2cc(Br)c(O)c(Br)c2)C(=O)c2[nH]cnc21	> 100 µM (inactive)	42.9 µM (inactive)	11.5 µM (inactive)	7.35 µM (inactive)	26.9 µM (inactive)	48.5 µM (inactive)	21.5 µM (inactive)	24.6 µM (inactive)	22.9 µM (inactive)	15 µM (inactive)	> 100 µM (inactive)	19.1 µM (inactive)	29.9 µM (inactive)	3.69 µM (inactive)	19.5 µM (inactive)	26.2 µM (inactive)	36.1 µM (inactive)	21.9 µM (inactive)	38.3 µM (inactive)	19.5 µM (inactive)
N#CCCN(CCCN(C(=O)N(c1ccccc1)c1ccccc1)c1ccccc1)C(=O)Nc1ccccc1	> 100 µM (inactive)	93.3 µM (inactive)	> 100 µM (inactive)	29.6 µM (inactive)	32.3 µM (inactive)	41.6 µM (inactive)	> 100 µM (inactive)	> 100 µM (inactive)	18.2 µM (inactive)	> 100 µM (inactive)	30.1 µM (inactive)	95.1 µM (inactive)	> 100 µM (inactive)	18.7 µM (inactive)	> 100 µM (inactive)	–	> 100 µM (inactive)	14 µM (inactive)	92 µM (inactive)	> 100 µM (inactive)
CCOC(=O)NC(Nc1ccc(S(=O)(=O)Nc2ccc(OC)nn2)cc1)(C(F)(F)F)C(F)(F)F	20.9 µM (inactive)	27 µM (inactive)	> 100 µM (inactive)	22.6 µM (inactive)	39.1 µM (inactive)	30.8 µM (inactive)	29.5 µM (inactive)	18 µM (inactive)	36.4 µM (inactive)	20.2 µM (inactive)	23.9 µM (inactive)	26.7 µM (inactive)	32.2 µM (inactive)	21.3 µM (inactive)	18.2 µM (inactive)	25.4 µM (inactive)	43.2 µM (inactive)	26.8 µM (inactive)	17.9 µM (inactive)	45 µM (inactive)
COC(=O)c1ccc(/C=C/C2=CC(=O)C=CC2=O)cc1	11.4 µM (inactive)	14.7 µM (inactive)	20.7 µM (inactive)	15.1 µM (inactive)	21.5 µM (inactive)	14.4 µM (inactive)	6.14 µM (inactive)	24.7 µM (inactive)	8.57 µM (inactive)	17.4 µM (inactive)	22.4 µM (inactive)	19.9 µM (inactive)	19.9 µM (inactive)	12.8 µM (inactive)	20.4 µM (inactive)	18.9 µM (inactive)	10.5 µM (inactive)	32.8 µM (inactive)	17.3 µM (inactive)	19.4 µM (inactive)
